Measured values as given in the supplement of paper PMC10307832.

compound: CC1=NN=C(O1)C2=NN=C(C=C2)N3CCC(CC3)OC4=C(C=CC(=C4)F)Cl + C[C@@H](Oc1cc(-c2cnn(C3CCNCC3)c2)cnc1N)c1c(Cl)ccc(F)c1Cl [Crizotinib] (partner 1 µM); experiment: relative viability (nuclei count vs DMSO), 5 days (fraction); higher = more cells survive; settings: first compound 0.253 µM
Method in brief: (§1)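 The day after seeding in 1536-well plates, lung cancer cell lines were treated by pin tool with a single drug, or with a fixed anchor-drug dose together with five library-drug doses (not always all listed) in √10 steps. After 5 days, a combined fix-and-stain solution (final 0.05% Triton X-100, 1% formaldehyde, 1 ug/ml Hoechst) was added. Nuclei counted on 4× images gave relative viability as treated counts over vehicle counts, reported as the median of duplicate plates.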

In order of rising relative viability:
1. LCLC-97TM1  0.262
2. HCC-78  0.294
3. NCI-H3122  0.3
4. HCC-827  0.331
5. LC-2-ad  0.334
6. EKVX  0.369
7. HCC-15  0.42
8. NCI-H1915  0.445
9. HCC-44  0.451
10. NCI-H2023  0.453
11. 201T  0.456
12. RERF-LC-KJ  0.496
13. NCI-H2009  0.565
14. NCI-H1437  0.605
15. NCI-H661  0.609
16. LXF-289  0.612
17. NCI-H1666  0.612
18. NCI-H441  0.615
19. NCI-H1734  0.652
20. NCI-H647  0.664
21. NCI-H650  0.691
22. NCI-H520  0.692
23. BEN  0.709
24. HOP-62  0.71
25. HARA  0.747
26. PC-14  0.747
27. NCI-H1651  0.753
28. NCI-H2085  0.76
29. NCI-H322M  0.762
30. NCI-H1993  0.779
31. A-427  0.826
32. EPLC-272H  0.877
33. NCI-H2126  0.921

same assay, conditions: first compound 0.8 µM

In order of falling relative viability:
1. NCI-H1975  0.918
2. NCI-H2126  0.858
3. NCI-H1993  0.806
4. BEN  0.796
5. NCI-H322M  0.792
6. NCI-H520  0.707
7. NCI-H650  0.692
8. NCI-H647  0.691
9. NCI-H1734  0.688
10. NCI-H661  0.661
11. NCI-H1651  0.659
12. NCI-H2085  0.656
13. PC-14  0.636
14. NCI-H1666  0.621
15. LXF-289  0.593
16. NCI-H2009  0.529
17. NCI-H1437  0.506
18. 201T  0.504
19. RERF-LC-KJ  0.498
20. NCI-H2023  0.493
21. NCI-H441  0.428
22. HCC-15  0.405
23. HCC-44  0.392
24. HARA  0.327
25. LC-2-ad  0.314
26. EKVX  0.313
27. NCI-H1915  0.312
28. NCI-H3122  0.303
29. HCC-78  0.297
30. HCC-827  0.224

same assay, conditions: first compound 2.53 µM

In order of rising relative viability:
1. HARA  0.271
2. HCC-78  0.288
3. NCI-H1915  0.311
4. EKVX  0.311
5. NCI-H3122  0.318
6. HCC-827  0.326
7. LC-2-ad  0.336
8. HCC-15  0.374
9. HCC-44  0.431
10. LCLC-97TM1  0.442
11. NCI-H2023  0.455
12. RERF-LC-KJ  0.495
13. 201T  0.499
14. NCI-H441  0.541
15. NCI-H2009  0.547
16. NCI-H1437  0.55
17. NCI-H1734  0.62
18. LXF-289  0.623
19. NCI-H1666  0.636
20. NCI-H650  0.64
21. NCI-H1651  0.656
22. NCI-H520  0.694
23. NCI-H661  0.711
24. PC-14  0.713
25. NCI-H647  0.726
26. A-427  0.779
27. NCI-H1975  0.782
28. HOP-62  0.784
29. NCI-H1993  0.794
30. NCI-H2085  0.821
31. NCI-H2126  0.891
32. NCI-H322M  0.899
33. BEN  0.913
34. EPLC-272H  0.926

same assay, conditions: first compound 8 µM

In order of rising relative viability:
1. NCI-H1915  0.253
2. HARA  0.294
3. HCC-827  0.308
4. HCC-78  0.311
5. LC-2-ad  0.326
6. LCLC-97TM1  0.327
7. NCI-H3122  0.359
8. NCI-H441  0.36
9. HCC-15  0.36
10. HCC-44  0.373
11. EKVX  0.393
12. NCI-H2023  0.441
13. RERF-LC-KJ  0.458
14. NCI-H2009  0.465
15. 201T  0.484
16. NCI-H647  0.528
17. NCI-H1437  0.535
18. LXF-289  0.545
19. HOP-62  0.575
20. NCI-H1734  0.626
21. NCI-H1666  0.629
22. NCI-H520  0.632
23. NCI-H1651  0.669
24. A-427  0.671
25. NCI-H2085  0.683
26. PC-14  0.739
27. NCI-H661  0.747
28. NCI-H1975  0.777
29. NCI-H650  0.818
30. NCI-H2126  0.841
31. BEN  0.86
32. NCI-H322M  0.886
33. NCI-H1993  0.993
34. EPLC-272H  1.03

compound: CC(C)C[C@@H](C(=O)N[C@H](C(=O)OC1CCCC1)c1ccccc1)[C@H](O)C(=O)NO [Tosedostat] + Nc1ncn([C@H]2C[C@H](O)[C@@H](CO)O2)c(=O)n1 [Decitabine] (partner 2 µM); experiment: as above; settings: first compound 0.02 µM
Method in brief: as §1

In order of falling relative viability:
1. HCC-44  0.941
2. 201T  0.835
3. BEN  0.79
4. NCI-H322M  0.69
5. NCI-H1651  0.683
6. RERF-LC-KJ  0.657
7. NCI-H661  0.637
8. HCC-78  0.634
9. HARA  0.583
10. A-427  0.562
11. NCI-H1437  0.537
12. NCI-H2126  0.533
13. NCI-H520  0.524
14. NCI-H3122  0.497
15. NCI-H1734  0.487
16. LXF-289  0.409
17. NCI-H1975  0.396
18. NCI-H2009  0.379
19. EPLC-272H  0.364
20. NCI-H647  0.332
21. HCC-827  0.317
22. NCI-H650  0.291
23. NCI-H2023  0.23
24. HOP-62  0.227
25. NCI-H1915  0.226
26. NCI-H441  0.226
27. PC-14  0.218
28. LCLC-97TM1  0.186
